Source: publication doi:10.1101/2023.11.02.565282v1 (biorxiv, 2023)
Read-outs that look alike come from different tables or passages of the source.

Columns and labels:
GluK2(VCQ)2a [1] = biological target: T1, GluK2(VCQ)2a (Rattus norvegicus, UniProt P42260, I567V/Y571C); assay: calcium-sensitive fluorescence assay; type: cell-based
GluK2(VCQ)2a [2] = biological target: T1, GluK2(VCQ)2a; assay: calcium-sensitive fluorescence assay; type: cell-based; settings: agonist; with 150 µM BPAM344; Fluo buffer pH 7.4

T1 sequence (P42260 32-908 I567V/Y571C): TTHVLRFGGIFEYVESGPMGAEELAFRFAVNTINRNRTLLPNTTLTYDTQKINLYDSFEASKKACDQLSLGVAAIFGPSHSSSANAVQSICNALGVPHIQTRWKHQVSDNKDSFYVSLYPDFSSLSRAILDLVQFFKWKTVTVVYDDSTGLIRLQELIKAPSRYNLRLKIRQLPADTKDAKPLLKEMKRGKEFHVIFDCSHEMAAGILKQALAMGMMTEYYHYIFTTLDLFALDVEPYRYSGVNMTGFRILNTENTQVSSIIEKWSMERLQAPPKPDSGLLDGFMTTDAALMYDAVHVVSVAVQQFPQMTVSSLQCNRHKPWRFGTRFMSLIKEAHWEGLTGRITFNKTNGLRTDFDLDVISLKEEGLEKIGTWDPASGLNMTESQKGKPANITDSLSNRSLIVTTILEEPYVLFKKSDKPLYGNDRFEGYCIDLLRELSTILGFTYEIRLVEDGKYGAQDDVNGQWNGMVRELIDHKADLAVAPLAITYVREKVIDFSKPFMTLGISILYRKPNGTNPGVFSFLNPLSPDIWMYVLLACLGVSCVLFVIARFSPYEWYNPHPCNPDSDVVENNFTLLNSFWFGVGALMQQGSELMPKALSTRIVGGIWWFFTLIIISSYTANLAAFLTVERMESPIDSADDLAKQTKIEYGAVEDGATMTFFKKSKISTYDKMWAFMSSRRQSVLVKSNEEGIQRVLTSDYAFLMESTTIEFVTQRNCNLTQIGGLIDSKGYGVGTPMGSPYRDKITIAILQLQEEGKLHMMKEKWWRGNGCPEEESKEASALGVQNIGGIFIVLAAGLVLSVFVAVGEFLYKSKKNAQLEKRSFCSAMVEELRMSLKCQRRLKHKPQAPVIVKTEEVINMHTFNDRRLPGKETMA

EC50 (GluK2(VCQ)2a [1])	Compound	EC50 (GluK2(VCQ)2a [2])
75.4 µM	O=S1(=O)NCN(C2CC2)c2ccc(F)cc21 [BPAM344]	–
–	C/C(=C/C=C/[C@@H](C)C(=O)O)[C@H]1CN[C@H](C(=O)O)[C@H]1CC(=O)O [domoate]	1.33 µM
